Assay results: the supplement of paper PMC10307832

How the values were obtained:
Assay in all cases: relative viability (nuclei count vs DMSO), 5 days (fraction); higher = more cells survive
NCI-H2023 = system: NCI-H2023
Summary of the method: (§1)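 Relative viability is defined as nuclei in treated wells over nuclei in vehicle wells. Duplicate plates were run and medians reported. Lung cancer cell lines in 1536-well plates were dosed by pin tool one day after seeding, with one drug or with a fixed anchor-drug dose plus five library-drug doses (not always all listed) in √10 steps, and nuclei were counted after 5 days.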

COR-L 105 = system: COR-L 105
Summary of the method: as §1

COR-L23 = system: COR-L23
Summary of the method: as §1

NCI-H1975 = system: NCI-H1975
Summary of the method: as §1

CAL-12T = system: CAL-12T
Summary of the method: as §1

NCI-H2170 = system: NCI-H2170
Summary of the method: as §1

LXF-289 = system: LXF-289
Summary of the method: as §1

HOP-62 = system: HOP-62
Summary of the method: as §1

NCI-H1651 = system: NCI-H1651
Summary of the method: as §1

NCI-H650 = system: NCI-H650
Summary of the method: as §1

NCI-H3122 = system: NCI-H3122
Summary of the method: as §1

SK-MES-1 = system: SK-MES-1
Summary of the method: as §1

LCLC-103H = system: LCLC-103H
Summary of the method: as §1

RERF-LC-KJ = system: RERF-LC-KJ
Summary of the method: as §1

PC-14 = system: PC-14
Summary of the method: as §1

NCI-H2085 = system: NCI-H2085
Summary of the method: as §1

NCI-H2087 = system: NCI-H2087
Summary of the method: as §1

NCI-H1395 = system: NCI-H1395
Summary of the method: as §1

NCI-H647 = system: NCI-H647
Summary of the method: as §1

EPLC-272H = system: EPLC-272H
Summary of the method: as §1

NCI-H596 = system: NCI-H596
Summary of the method: as §1

A-427 = system: A-427
Summary of the method: as §1

NCI-H1993 = system: NCI-H1993
Summary of the method: as §1

SMILES: O=C(O)CCCCC(CCSCc1ccccc1)SCc1ccccc1 (stereo not given) [CPI-613] + Cc1nc(NC(=O)N2CCC[C@H]2C(N)=O)sc1-c1ccnc(C(C)(C)C(F)(F)F)c1 [Alpelisib] (partner 2 µM)
- relative viability (NCI-H2023; first compound 5 µM): 0.624
- relative viability (NCI-H2023; first compound 15.81 µM): 0.576
- relative viability (NCI-H2023; first compound 50 µM): 0.548
- relative viability (NCI-H2023; first compound 158.11 µM): 0.0809
- relative viability (NCI-H2023; first compound 500 µM): 0.0084
- relative viability (COR-L 105; first compound 5 µM): 0.888
- relative viability (COR-L 105; first compound 15.81 µM): 1.11
- relative viability (COR-L 105; first compound 50 µM): 0.909
- relative viability (COR-L 105; first compound 158.11 µM): 0.476
- relative viability (COR-L 105; first compound 500 µM): 0.161
- relative viability (COR-L23; first compound 5 µM): 0.745
- relative viability (COR-L23; first compound 15.81 µM): 0.696
- relative viability (COR-L23; first compound 50 µM): 0.852
- relative viability (COR-L23; first compound 158.11 µM): 0.281
- relative viability (COR-L23; first compound 500 µM): 0.0191
- relative viability (NCI-H1975; first compound 5 µM): 0.542
- relative viability (NCI-H1975; first compound 15.81 µM): 0.655
- relative viability (NCI-H1975; first compound 50 µM): 0.692
- relative viability (NCI-H1975; first compound 158.11 µM): 0.327
- relative viability (NCI-H1975; first compound 500 µM): 0.0528
- relative viability (CAL-12T; first compound 5 µM): 1
- relative viability (CAL-12T; first compound 15.81 µM): 1.11
- relative viability (CAL-12T; first compound 50 µM): 1.14
- relative viability (CAL-12T; first compound 158.11 µM): 0.0352
- relative viability (CAL-12T; first compound 500 µM): 0.0082
- relative viability (NCI-H2170; first compound 5 µM): 0.808
- relative viability (NCI-H2170; first compound 15.81 µM): 0.766
- relative viability (NCI-H2170; first compound 50 µM): 0.796
- relative viability (NCI-H2170; first compound 158.11 µM): 0.547
- relative viability (NCI-H2170; first compound 500 µM): 0.483
- relative viability (LXF-289; first compound 5 µM): 1.02
- relative viability (LXF-289; first compound 15.81 µM): 0.961
- relative viability (LXF-289; first compound 50 µM): 0.988
- relative viability (LXF-289; first compound 158.11 µM): 0.318
- relative viability (LXF-289; first compound 500 µM): 0.0306
- relative viability (HOP-62; first compound 5 µM): 1.07
- relative viability (HOP-62; first compound 15.81 µM): 0.833
- relative viability (HOP-62; first compound 50 µM): 0.916
- relative viability (HOP-62; first compound 158.11 µM): 0.189
- relative viability (HOP-62; first compound 500 µM): 0.246
- relative viability (NCI-H1651; first compound 5 µM): 0.969
- relative viability (NCI-H1651; first compound 15.81 µM): 0.895
- relative viability (NCI-H1651; first compound 50 µM): 0.967
- relative viability (NCI-H1651; first compound 158.11 µM): 0.41
- relative viability (NCI-H1651; first compound 500 µM): 0.116
- relative viability (NCI-H650; first compound 5 µM): 1.18
- relative viability (NCI-H650; first compound 15.81 µM): 1.06
- relative viability (NCI-H650; first compound 50 µM): 1.06
- relative viability (NCI-H650; first compound 158.11 µM): 0.931
- relative viability (NCI-H650; first compound 500 µM): 0.892
- relative viability (NCI-H3122; first compound 5 µM): 0.638
- relative viability (NCI-H3122; first compound 15.81 µM): 0.751
- relative viability (NCI-H3122; first compound 50 µM): 0.715
- relative viability (NCI-H3122; first compound 158.11 µM): 0.528
- relative viability (NCI-H3122; first compound 500 µM): 0.0415
- relative viability (SK-MES-1; first compound 5 µM): 0.894
- relative viability (SK-MES-1; first compound 15.81 µM): 0.982
- relative viability (SK-MES-1; first compound 50 µM): 0.784
- relative viability (SK-MES-1; first compound 158.11 µM): 0.724
- relative viability (SK-MES-1; first compound 500 µM): 0.785
- relative viability (LCLC-103H; first compound 5 µM): 0.845
- relative viability (LCLC-103H; first compound 15.81 µM): 0.974
- relative viability (LCLC-103H; first compound 50 µM): 0.883
- relative viability (LCLC-103H; first compound 158.11 µM): 0.873
- relative viability (LCLC-103H; first compound 500 µM): 0.964
- relative viability (RERF-LC-KJ; first compound 5 µM): 0.748
- relative viability (RERF-LC-KJ; first compound 15.81 µM): 1.34
- relative viability (RERF-LC-KJ; first compound 50 µM): 0.757
- relative viability (RERF-LC-KJ; first compound 158.11 µM): 0.869
- relative viability (RERF-LC-KJ; first compound 500 µM): 0.733
- relative viability (PC-14; first compound 5 µM): 0.97
- relative viability (PC-14; first compound 15.81 µM): 0.884
- relative viability (PC-14; first compound 50 µM): 0.849
- relative viability (PC-14; first compound 158.11 µM): 1.01
- relative viability (PC-14; first compound 500 µM): 0.863
- relative viability (NCI-H2085; first compound 5 µM): 1.01
- relative viability (NCI-H2085; first compound 15.81 µM): 0.927
- relative viability (NCI-H2085; first compound 50 µM): 0.906
- relative viability (NCI-H2085; first compound 158.11 µM): 0.591
- relative viability (NCI-H2085; first compound 500 µM): 0.242
- relative viability (NCI-H2087; first compound 5 µM): 1.14
- relative viability (NCI-H2087; first compound 15.81 µM): 0.95
- relative viability (NCI-H2087; first compound 50 µM): 0.95
- relative viability (NCI-H2087; first compound 158.11 µM): 0.0725
- relative viability (NCI-H2087; first compound 500 µM): 0.0158
- relative viability (NCI-H1395; first compound 5 µM): 0.988
- relative viability (NCI-H1395; first compound 15.81 µM): 1.08
- relative viability (NCI-H1395; first compound 50 µM): 1.27
- relative viability (NCI-H1395; first compound 158.11 µM): 0.99
- relative viability (NCI-H1395; first compound 500 µM): 0.75
- relative viability (NCI-H647; first compound 5 µM): 1.19
- relative viability (NCI-H647; first compound 15.81 µM): 0.968
- relative viability (NCI-H647; first compound 50 µM): 0.769
- relative viability (NCI-H647; first compound 158.11 µM): 0.0933
- relative viability (NCI-H647; first compound 500 µM): 0.0159
- relative viability (EPLC-272H; first compound 5 µM): 0.95
- relative viability (EPLC-272H; first compound 15.81 µM): 0.813
- relative viability (EPLC-272H; first compound 50 µM): 0.94
- relative viability (EPLC-272H; first compound 158.11 µM): 0.923
- relative viability (EPLC-272H; first compound 500 µM): 1.04
- relative viability (NCI-H596; first compound 5 µM): 0.539
- relative viability (NCI-H596; first compound 15.81 µM): 0.496
- relative viability (NCI-H596; first compound 50 µM): 0.539
- relative viability (NCI-H596; first compound 158.11 µM): 0.473
- relative viability (NCI-H596; first compound 500 µM): 0.0181
- relative viability (A-427; first compound 5 µM): 1.02
- relative viability (A-427; first compound 15.81 µM): 1.06
- relative viability (A-427; first compound 50 µM): 1.01
- relative viability (A-427; first compound 158.11 µM): 0.985
- relative viability (A-427; first compound 500 µM): 0.857
- relative viability (NCI-H1993; first compound 5 µM): 0.709
- relative viability (NCI-H1993; first compound 15.81 µM): 0.721
- relative viability (NCI-H1993; first compound 50 µM): 0.752
- relative viability (NCI-H1993; first compound 158.11 µM): 0.485
- relative viability (NCI-H1993; first compound 500 µM): 0.432
